The values that follow come from patent US8754057B2, “Inhibition of apoptosis-specific eIF-5A(eIF-5A1″) with antisense oligonucleotides and siRNA as anti-inflammatory therapeutics” (Senesco Technologies, Inc., priority 2003, dated 2014).

The test system of series [1] is lamina cribrosa cell line #517. Description: Hoescht staining apoptosis of siRNA-transfected lamina cribrosa cells treated with TNF-α and camptothecin. It counts as cell-based, human. Conditions: 72 h after siRNA transfection, 24 h TNF-α plus camptothecin. As to the method: Lamina cribrosa cell line #517 cells were seeded at 7500 cells per well onto an 8-well culture slide. Three days later the LC cells were transfected with either apoptosis-specific eIF-5A siRNA #1 (SEQ ID NO:30) or control siRNA #5 (SEQ ID NO:34). 72 hours after transfection, the transfected cells were treated with 10 ng/ml TNF-α plus 50 μM camptothecin. Twenty-four hours later the cells were stained with Hoescht 33258 and viewed by fluorescence microscopy using a UV filter. Cells with brightly stained condensed or fragmented nuclei were counted as apoptotic. The results of two independent experiments are represented here.
Small inhibitory RNAs (siRNAs) directed against human apoptosis-specific eIF-5A were used to specifically suppress expression of eIF5A in lamina cribrosa cells. Six siRNAs were generated by in vitro transcription using the Silencer™ siRNA Construction Kit (Ambion Inc.), Four siRNAs were generated against human apoptosis-specific eIF-5A (siRNAs #1 to #4). […] The siRNAs were generated according to the manufacturer's protocol. […]
Transfected cells that had been treated with TNF-α and camptothecin for 24 hours were stained with Hoescht 33258 in order to determine the percentage of cells undergoing apoptosis. […] Cells with brightly stained or fragmented nuclei were scored as apoptotic. A minimum of 200 cells were counted per well. […]

In series [2] the test system is lamina cribrosa cell line #506. The description is as above. The format is cell-based, human. Conditions: LC #506, 72 h after siRNA transfection, 24 h 10 ng/ml TNF-α plus 50 μM camptothecin. How it is done: Lamina cribrosa cell line #506 cells were seeded at 7500 cells per well onto an 8-well culture slide. Three days later the LC cells were transfected with either GAPDH siRNA, apoptosis-specific eIF-5A siRNAs #1-4 (SEQ ID NO:30-33), or control siRNA #5 (SEQ ID NO:34). 72 hours after transfection, the transfected cells were treated with 10 ng/ml TNF-α plus 50 μM camptothecin. Twenty-four hours later the cells were stained with Hoescht 33258 and viewed by fluorescence microscopy using a UV filter. Cells with brightly stained condensed or fragmented nuclei were counted as apoptotic. This graph represents the average of n=4 independent experiments.
Following transfection, RKO and lamina cribrosa cells were incubated for 72 hours prior to collection of cellular extract for Western blot analysis. In order to determine the effectiveness of the siRNAs directed against apoptosis-specific eIF-5A to block apoptosis, lamina cribrosa cells were treated with 50 μM of camptothecin (Sigma) and 10 ng/ml of TNF-α (Leinco Technologies) to induce apoptosis either 48 or 72 hours after transfection. The cells were stained with Hoescht either 24 or 48 hours later in order to determine the percentage of cells undergoing apoptosis.
Small inhibitory RNAs (siRNAs) directed against human apoptosis-specific eIF-5A were used to specifically suppress expression of eIF5A in lamina cribrosa cells. Six siRNAs were generated by in vitro transcription using the Silencer™ siRNA Construction Kit (Ambion Inc.), Four siRNAs were generated against human apoptosis-specific eIF-5A (siRNAs #1 to #4). […] The siRNAs were generated according to the manufacturer's protocol. The eIF5A and control siRNA targets had the following sequences: siRNA #1 5′ […] 3′ (SEQ ID NO: 81); siRNA #2 5′ […] 3′ (SEQ ID NO: 82); siRNA #3 5′ […] 3′ (SEQ ID NO: 83); siRNA #4 5′ […] 3′ (SEQ ID NO: 84); siRNA #5′ […] 3′ (SEQ ID NO: 85). Lamina cribrosa cells were transfected with siRNA using LipofectAMINE 2000.
Lamina cribrosa cells were transfected when cell confluence was at 40 to 70% and were generally seeded onto 8-well culture slides at 7500 cells per well three days prior to transfection. Transfection medium sufficient for one well of an 8-well culture slide was prepared by diluting 25.5 proles of siRNA to a final volume of 21.2 μl in Opti-Mem (Sigma). 0.425 μl of Lipofectamine 2000 was diluted to a final volume of 21.2 μl in Opti-Mem and incubated for 7 to 10 minutes at room temperature. The diluted Lipofectamine 2000 mixture was then added to the diluted siRNA mixture and incubated together at room temperature for 20 to 30 minutes, The cells were washed once with serum-free media before adding 135 μl of serum-free media to the cells and overlaying 42.4 μl of transfection medium. […]

Turning to “siRNA #1: siRNA against human apoptosis-specific eIF-5A (SEQ ID NO:30); target 5′ AAAGGAATGACTTCCAGCTGA 3′ (SEQ ID NO: 81) (AAAGGAAUGACUUCCAGCUGATT; RNA, all phosphodiester, T or U not given here; listed as Homo sapiens)”, the “reduce apoptosis of the LC line #517” value in series [1] stood at 53%. In addition, the “reduce apoptosis of LC cells” value in series [2] was determined as 59%.
